The record followed here is ChEMBL document CHEMBL1201862, “PubChem BioAssay data set” (2004).

Some test systems named below: DMS-114; SNB-78; DMS-273; M19-MEL; LXFL 529; DLD-1; HOP-18; XF498; RXF 631.
Holding throughout (test): NCI-60 cell line screen, 48 h

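Step 1: Grow cells in 96-well plates. Step 2: Expose to compound for 48 hours at 5 concentrations. Step 3: Interpolate endpoints linearly; if unreached, use highest concentration. GI50 is the concentration that inhibits growth by half.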 Active and inactive are the calls of the source. Rule as the data show it: active = GI50 up to about 1.1 µM and inactive = higher.

On to `CC(=O)NC1=C(C)C(=O)c2c(nc3n2CCC3O)C1=O` (centres undefined), for which the GI50 in the experiment on DMS-114 was 5.56 µM (inactive); with SNB-78, 31.3 µM (inactive); in the experiment with DMS-273 it was 44.8 µM (inactive); with M19-MEL, 25.6 µM (inactive); with LXFL 529 it was 19.6 µM (inactive); with DLD-1, 39.5 µM (inactive). Besides, the GI50 in the experiment on HOP-18 was > 100 µM (inactive); in the experiment with XF498, 18.2 µM (inactive).
In the case of `Clc1ccc(C[P+]2(c3ccccc3)CCCCC2)cc1.[O-][Cl+3]([O-])([O-])[O-]`, the GI50 in the experiment with DMS-114 is 50.4 µM (inactive); in the experiment on SNB-78, 52.4 µM (inactive); with DMS-273 it was 57.5 µM (inactive); in the experiment with M19-MEL, 28.7 µM (inactive); in the experiment with LXFL 529, 37.1 µM (inactive); with DLD-1, > 100 µM (inactive). For the same compound, the GI50 was > 100 µM (inactive) with HOP-18 and 44 µM (inactive) in the experiment on XF498.
As to `O=C1N(c2ccccc2)C2(O)C(=O)c3ccccc3C2(O)N1c1ccccc1` (centres undefined), the GI50 in the experiment with DMS-114, in the experiment with SNB-78, with DMS-273, in the experiment with M19-MEL, in the experiment with LXFL 529 and in the experiment on DLD-1 was > 100 µM (inactive) each time. For the same compound, the GI50 in the experiment with HOP-18 was > 100 µM (inactive).
In the case of `C/C(=N\NC(=S)N(C)C)c1ncc[nH]1`, the GI50 is 3.13 µM (inactive) with DMS-114; 5.6 µM (inactive) in the experiment on M19-MEL; 2.98 µM (inactive) in the experiment with LXFL 529; 2.9 µM (inactive) in the experiment on DLD-1; 5.37 µM (inactive) in the experiment with HOP-18; 4.73 µM (inactive) with XF498.
On to `O=[N+]([O-])c1cc(C2SCc3nc4ccccc4n32)ccc1Cl` (centres undefined), for which the GI50 in the experiment on DMS-114 was 20.1 µM (inactive); with SNB-78, 23.2 µM (inactive); in the experiment with DMS-273, 24.2 µM (inactive); in the experiment with M19-MEL it was 22.2 µM (inactive); in the experiment on LXFL 529, 23.1 µM (inactive); in the experiment on DLD-1, 26.1 µM (inactive). Moreover, the GI50 with HOP-18 is 76.7 µM (inactive).
Consider `CC1=C(C(=O)Nc2cc(=O)n(C)c(=O)n2C)C(c2ccc([N+](=O)[O-])cc2)C(C(=O)Nc2cc(=O)n(C)c(=O)n2C)=C(C)N1`, for which the GI50 with DMS-114 was 73.5 µM (inactive); in the experiment with SNB-78 it was > 100 µM (inactive); in the experiment on RXF 631, > 100 µM (inactive); in the experiment on M19-MEL, > 100 µM (inactive); in the experiment on LXFL 529, 51.8 µM (inactive); with DLD-1, 90.8 µM (inactive). Moreover, the GI50 in the experiment on HOP-18 is 51.5 µM (inactive); in the experiment with XF498, 8.97 µM (inactive).
In the case of `CCC1CC2C(=O)N(c3ccccc3)C(=O)C2c2[nH]c3ccccc3c21` (centres undefined), the GI50 in the experiment with DMS-114 is 13.9 µM (inactive); with SNB-78 it was 26.6 µM (inactive); in the experiment with DMS-273 it was > 10 µM (inactive); in the experiment on RXF 631 it was 13.3 µM (inactive); in the experiment with M19-MEL, 20.4 µM (inactive); with LXFL 529, 20.2 µM (inactive). Moreover, the GI50 with DLD-1 was 24 µM (inactive); in the experiment on HOP-18 it was 14.3 µM (inactive); in the experiment on XF498, 16.7 µM (inactive).
As to `CCc1ccc(Cc2ccc(CC)c(NC(=O)C(=O)C3NC(=S)NC3=O)c2CC)c(CC)c1NC(=O)C(=O)C1NC(=S)NC1=O` (centres undefined), the GI50 in the experiment with SNB-78, with DMS-273, in the experiment with RXF 631, in the experiment with M19-MEL, with LXFL 529 and in the experiment on DLD-1 was > 100 µM (inactive) throughout.
In the case of `COc1cc2c(c(OC(C)=O)c1OC(C)=O)-c1ccc(SC)c(=O)cc1C(NC(C)=O)CC2` (centres undefined), the GI50 in the experiment on DMS-114 is 0.618 µM (active); in the experiment with SNB-78, 0.48 µM (active); in the experiment on DMS-273, 1.41 µM (inactive); in the experiment on M19-MEL it was 1.39 µM (inactive); in the experiment on LXFL 529 it was 0.955 µM (active); in the experiment with DLD-1, 3.91 µM (inactive). The GI50 is > 91 µM (inactive) with HOP-18 and 2.75 µM (inactive) with XF498.
In the case of `CCN(CC)C(=O)c1c(N2CCOCC2)cc(N(CC)CC)oc1=O`, the GI50 in the experiment with DMS-114, in the experiment with SNB-78, in the experiment with DMS-273, in the experiment on M19-MEL, in the experiment with LXFL 529 and in the experiment with DLD-1 was > 100 µM (inactive) throughout. The GI50 in the experiment with HOP-18 and in the experiment with XF498 was > 100 µM (inactive) throughout.
With `Nc1ccccc1SC(/C=C/NNC1=NN=C(c2ccccc2)C(c2ccccc2)N1)c1ccccc1` (centres undefined), the GI50 was 13.6 µM (inactive) in the experiment on DMS-114; 18 µM (inactive) in the experiment on SNB-78; 16.9 µM (inactive) in the experiment on DMS-273; 11.4 µM (inactive) in the experiment on M19-MEL; 12.9 µM (inactive) with DLD-1.
Turning to `CC(C)C(Sc1nc(-c2ccccc2)c(-c2ccccc2)[nH]1)C(=O)NNC(=S)Nc1ccccc1` (centres undefined), the GI50 was 25 µM (inactive) with SNB-78; 17.7 µM (inactive) in the experiment on DMS-273; 18.9 µM (inactive) in the experiment on M19-MEL; 15.5 µM (inactive) in the experiment on LXFL 529; 25.8 µM (inactive) in the experiment with DLD-1; 18.4 µM (inactive) in the experiment on XF498.
As to `CCCc1c[nH]c(-c2ccc(-c3cc(CCC)c(C=O)[nH]3)s2)c1`, the GI50 with DMS-114 was 14.1 µM (inactive); in the experiment on SNB-78, 20.1 µM (inactive); in the experiment with DMS-273 it was 14.9 µM (inactive); in the experiment with M19-MEL, 7.93 µM (inactive); in the experiment on LXFL 529, 18.8 µM (inactive); with DLD-1, 15 µM (inactive). Also, the GI50 in the experiment with HOP-18 is 27.7 µM (inactive); with XF498 it was 18.7 µM (inactive).
On to `CC(=O)CC(=O)Nc1ccccc1C(F)(F)F`, for which the GI50 in the experiment with DMS-114, in the experiment with SNB-78, in the experiment with RXF 631, in the experiment on M19-MEL, in the experiment with LXFL 529 and with DLD-1 was > 100 µM (inactive) in each case. The GI50 in the experiment with XF498 was > 100 µM (inactive).
Turning to `O=C1c2ccccc2S[C@@H](O)[C@@H]2CCCN12`, the GI50 in the experiment with DMS-114, in the experiment on SNB-78, in the experiment with DMS-273, in the experiment with M19-MEL, in the experiment with LXFL 529 and in the experiment with DLD-1 was > 100 µM (inactive) in each case. The GI50 with HOP-18 was > 100 µM (inactive); in the experiment on XF498 it was 39.6 µM (inactive).
As to `Cc1cc(NS(=O)(=O)c2ccc(NC(=O)c3cccc4c(Nc5ccc(S(=O)(=O)N=C(N)N)cc5)c5ccccc5nc34)cc2)no1`, the GI50 in the experiment on SNB-78, with DMS-273, in the experiment on RXF 631, in the experiment with LXFL 529 and with DLD-1 was > 100 µM (inactive) in each case.
With `COC(=O)NN=C1C(C)(C)C(=NNC(=O)OC)C1(C)C`, the GI50 in the experiment on DMS-114 was > 41.6 µM (inactive); with SNB-78, > 100 µM (inactive); in the experiment on DMS-273, > 100 µM (inactive); with RXF 631 it was > 100 µM (inactive); in the experiment with M19-MEL it was > 40.6 µM (inactive); in the experiment with LXFL 529, > 100 µM (inactive). The GI50 is > 61.9 µM (inactive) in the experiment with DLD-1, > 100 µM (inactive) in the experiment with HOP-18 and > 96.6 µM (inactive) in the experiment on XF498.
In the case of `CC1(C)CCC[C@@]2(C)C1C[C@H](O)[C@@]1(C)O[C@@](C)([C@H](O)CO)CCC21` (some centres undefined), the GI50 in the experiment with DMS-114 was 25.3 µM (inactive); in the experiment with SNB-78, 40.3 µM (inactive); in the experiment with DMS-273, 44.2 µM (inactive); in the experiment on RXF 631 it was 86.9 µM (inactive); in the experiment on M19-MEL, 40.8 µM (inactive); in the experiment on LXFL 529 it was 43.2 µM (inactive). The values for the GI50 in the experiment on HOP-18 and with XF498 were 26.1 µM (inactive) and 38.7 µM (inactive), respectively.
With `Cc1cc(C)cc(-n2c3nc(=O)n(C)c(=O)c-3nc3ccccc32)c1`, the GI50 is 13.4 µM (inactive) in the experiment on DMS-114; 35.6 µM (inactive) in the experiment with SNB-78; 16.7 µM (inactive) in the experiment on DMS-273; 22.5 µM (inactive) in the experiment with RXF 631; 6.07 µM (inactive) with M19-MEL; 48.4 µM (inactive) in the experiment on LXFL 529. Moreover, the GI50 in the experiment with HOP-18 is > 100 µM (inactive); with XF498, 36.3 µM (inactive).
In the case of `CS(=O)(=O)OCCCCOS(C)(=O)=O` [BUSULFAN], the GI50 in the experiment on DMS-114 was 225 µM (inactive); in the experiment with SNB-78 it was 212 µM (inactive); with DMS-273, 191 µM (inactive); in the experiment with M19-MEL, 226 µM (inactive); in the experiment with LXFL 529, > 250 µM (inactive); in the experiment with DLD-1, > 236 µM (inactive). Also, in the experiment with HOP-18, the GI50 was > 200 µM (inactive).
On to `CCn1cc(C(=O)O)c(=O)c2cc(F)c(N3CCNCC3)nc21` [ENOXACIN], for which the GI50 in the experiment with DMS-114 was > 100 µM (inactive); in the experiment on SNB-78, > 100 µM (inactive); in the experiment with DMS-273 it was > 100 µM (inactive); in the experiment with RXF 631 it was > 100 µM (inactive); in the experiment on M19-MEL it was 87.9 µM (inactive); in the experiment with LXFL 529, > 100 µM (inactive). The GI50 with DLD-1 and in the experiment on HOP-18 was > 100 µM (inactive) in each case.
